This note sets out measurements from patent US20240279214A1, “ALPHA4 BETA7 INEGRIN ANTAGONISTS AND USES THEREOF” (XinThera, Inc., priority 2022, published 2024).

The conditions of data set [1]: ether bond, 13-membered ring, 100.0 °C.
The conditions of data set [2]: ether bond, 13-membered ring, 100.0 °C. The source holds these as a separate data set.

Read-outs that look alike come from different tables or passages of the source.

In data set [1] (from CCOC(=O)C[C@H](NC(=O)C(c1cc(Br)ccc1F)n1ccc2ccoc2c1=O)c1cc(-c2c(C)cccc2O)cc(C)c1F, CuI/(1R,2R)-N,N'-dimethylcyclohexane-1,2-diamine/K2CO3, 1,4-dioxane, 37.5 mM, 4.0 h), `CCOC(=O)C[C@@H]1NC(=O)C(n2ccc3ccoc3c2=O)c2cc(ccc2F)Oc2cccc(C)c2-c2cc(C)c(F)c1c2` (stereo in doubt) yielded a ring closure, yield after HPLC of 50.9%.
In turn, `CCOC(=O)C[C@@H]1NC(=O)C(n2cc(CCN3CC(F)C3)c(C(F)(F)F)cc2=O)c2cccc(c2)Oc2cc(Cl)cc(C)c2-c2cc1c(F)c(C(F)(F)F)c2` (stereo partly shown) showed a ring closure, yield after HPLC in data set [1] (from CCOC(=O)C[C@H](NC(=O)C(c1cccc(Br)c1)n1cc(CCN2CC(F)C2)c(C(F)(F)F)cc1=O)c1cc(-c2c(C)cc(Cl)cc2O)cc(C(F)(F)F)c1F, CuI/(1R,2R)-N1,N2-dimethylcyclohexane-1,2-diamine/K2CO3, dioxane, 34.0 mM, 4.0 h) of 33%.
Regarding `CCOC(=O)C[C@@H]1NC(=O)C(n2cccc(-c3ccccc3)c2=O)c2cc(ccc2F)Oc2cccc(C)c2-c2cc(C)c(F)c1c2` (stereo partly shown), in data set [1] (from CCOC(=O)C[C@H](NC(=O)C(c1cc(Br)ccc1F)n1cccc(-c2ccccc2)c1=O)c1cc(-c2c(C)cccc2O)cc(C)c1F, CuI/(1R,2R)-N,N'-dimethylcyclohexane-1,2-diamine/K2CO3, dioxane, 70.0 mM, 2.0 h), the ring closure, yield after HPLC is 48.2%.
With `CCOC(=O)C[C@@H]1NC(=O)C(n2cc(CCN3CC(F)C3)c(C(F)(F)F)cc2=O)c2cccc(c2)Oc2cc(C3CC3)cc(C)c2-c2cc1c(F)c(C(F)(F)F)c2` (stereo partly shown), in data set [1] (from CCOC(=O)C[C@H](NC(=O)C(c1cccc(Br)c1)n1cc(CCN2CC(F)C2)c(C(F)(F)F)cc1=O)c1cc(-c2c(C)cc(C3CC3)cc2O)cc(C(F)(F)F)c1F, CuI/(1R,2R)-N1,N2-dimethylcyclohexane-1,2-diamine/K2CO3, dioxane, 40.0 mM, 16.0 h), the ring closure, yield after HPLC came to 31.4%.
For `CCOC(=O)C[C@@H]1NC(=O)C(n2ccc3occc3c2=O)c2cc(ccc2F)Oc2cccc(C)c2-c2cc(C)c(F)c1c2` (stereo partly shown), the ring closure, yield after HPLC in data set [1] (from CCOC(=O)C[C@H](NC(=O)C(c1cc(Br)ccc1F)n1ccc2occc2c1=O)c1cc(-c2c(C)cccc2O)cc(C)c1F, CuI/(1S,2S)-N,N'-dimethylcyclohexane-1,2-diamine/K2CO3, dioxane, 30.0 mM, 4.0 h) came out at 36.3%.
`CCOC(=O)C[C@@H]1NC(=O)C(n2cc(CCN3CC(F)C3)c(C(F)(F)F)cc2=O)c2cc(ccc2F)Oc2cc(F)cc(C)c2-c2cc(C)c(F)c1c2` (stereo in doubt): the ring closure, isolated yield in data set [2] (from CCOC(=O)C[C@H](NC(=O)C(c1cc(Br)ccc1F)n1cc(CCN2CC(F)C2)c(C(F)(F)F)cc1=O)c1cc(-c2c(C)cc(F)cc2O)cc(C)c1F, CuI/K2CO3/(1R,2R)-N1,N2-dimethylcyclohexane-1,2-diamine, dioxane, 30.0 mM, 16.0 h) stood at 48.2%.
`CCOC(=O)C[C@@H]1NC(=O)C(n2cc(CCN3CC(F)C3)c(C(F)(F)F)cc2=O)c2cccc(c2)Oc2cccc(C)c2-c2cc(C)c(F)c1c2` (stereo in doubt) yielded a ring closure, isolated yield in data set [2] (from CCOC(=O)C[C@H](NC(=O)C(c1cccc(Br)c1)n1cc(CCN2CC(F)C2)c(C(F)(F)F)cc1=O)c1cc(-c2c(C)cccc2O)cc(C)c1F, CuI/K2CO3, dioxane, 42.0 mM, 16.0 h) of 33.4%.
`CCOC(=O)C[C@H](NC(=O)C(c1cc(Cl)cc(Br)c1)n1cc(CCN2CC(F)C2)c(C(F)(F)F)cc1=O)c1cc(-c2c(O)ccc(F)c2C)cc(C)c1F` (stereo partly shown) returned a ring closure, isolated yield in data set [2] (the molecule shown is the open-chain precursor, CuI/(1R,2R)-N1,N2-dimethylcyclohexane-1,2-diamine/K2CO3, dioxane, 22.0 mM) of 98.3%.
As for `CCOC(=O)C[C@@H]1NC(=O)C(n2cc(CCOC)c(C(F)(F)F)cc2=O)c2cc(ccc2F)Oc2cccc(C)c2-c2cc(C)c(F)c1c2` (stereo partly shown), in data set [2] (from CCOC(=O)C[C@H](NC(=O)C(c1cc(Br)ccc1F)n1cc(CCOC)c(C(F)(F)F)cc1=O)c1cc(-c2c(C)cccc2O)cc(C)c1F, CuI/K2CO3/(1R,2S)-N1,N2-dimethylcyclohexane-1,2-diamine, dioxane, 65.0 mM), the ring closure, isolated yield is 27.9%.
For `CCOC(=O)C[C@@H]1NC(=O)C(n2ccc(C(F)(F)F)cc2=O)c2cc(ccc2F)Oc2cccc(C)c2-c2cc(C)c(F)c1c2` (stereo partly shown), the ring closure, isolated yield in data set [2] (from CCOC(=O)C[C@H](NC(=O)C(c1cc(Br)ccc1F)n1ccc(C(F)(F)F)cc1=O)c1cc(-c2c(C)cccc2O)cc(C)c1F, CuI/(1R,2R)-N1,N2-dimethylcyclohexane-1,2-diamine/K2CO3, 1,4-dioxane, 40.0 mM, 16.0 h) was determined as 88.7%.
With `CCOC(=O)C[C@@H]1NC(=O)C(n2cc(CCN3CC(F)C3)c(C(F)(F)F)cc2=O)c2cc(cc(C(F)(F)F)c2)Oc2cccc(C)c2-c2cc(C)c(F)c1c2` (stereo in doubt), in data set [2] (from CCOC(=O)C[C@H](NC(=O)C(c1cc(Br)cc(C(F)(F)F)c1)n1cc(CCN2CC(F)C2)c(C(F)(F)F)cc1=O)c1cc(-c2c(C)cccc2O)cc(C)c1F, CuI/K2CO3/(1R,2R)-N1,N2-dimethylcyclohexane-1,2-diamine, dioxane, 90.0 mM, 2.0 h), the ring closure, isolated yield turned out to be 69%.
For the molecule `CCOC(=O)C[C@@H]1NC(=O)C(n2cc(CCN3CC(F)C3)c(C(F)(F)F)cc2=O)c2cccc(c2)Oc2cccc(C)c2-c2cc(C3CC3)c(F)c1c2` (stereo partly shown), in data set [2] (from CCOC(=O)C[C@H](NC(=O)C(c1cccc(Br)c1)n1cc(CCN2CC(F)C2)c(C(F)(F)F)cc1=O)c1cc(-c2c(C)cccc2O)cc(C2CC2)c1F, CuI/(1R,2R)-N1,N2-dimethylcyclohexane-1,2-diamine/K2CO3, dioxane, 26.1 mM, 16.0 h), the ring closure, isolated yield worked out at 82.3%.
The molecule `CCOC(=O)C[C@@H]1NC(=O)C(n2ccc(C(F)(F)F)cc2=O)c2cc(ccc2F)Oc2cc(OC)cc(C)c2-c2cc(C)c(F)c1c2` (stereo partly shown) showed a ring closure, isolated yield in data set [2] (from CCOC(=O)C[C@H](NC(=O)C(c1cc(Br)ccc1F)n1ccc(C(F)(F)F)cc1=O)c1cc(-c2c(C)cc(OC)cc2O)cc(C)c1F, CuI/K2CO3/(1R,2R)-N1,N2-dimethylcyclohexane-1,2-diamine, 1,4-dioxane, 70.0 mM, 2.0 h) of 67.3%.
Regarding `CCOC(=O)C[C@@H]1NC(=O)C(n2cc(CCN3CC(F)C3)c(C(F)(F)F)cc2=O)c2cc(ccc2F)Oc2cc(C)cc(C)c2-c2cc(C)c(F)c1c2` (stereo partly shown), the ring closure, isolated yield in data set [2] (from CCOC(=O)C[C@H](NC(=O)C(c1cc(Br)ccc1F)n1cc(CCN2CC(F)C2)c(C(F)(F)F)cc1=O)c1cc(-c2c(C)cc(C)cc2O)cc(C)c1F, CuI/K2CO3/(1R,2R)-N1,N2-dimethylcyclohexane-1,2-diamine, dioxane, 66.0 mM, 16.0 h) amounted to 49.3%.
In data set [2] (from CCOC(=O)C[C@H](NC(=O)C(c1cc(Br)ccc1F)n1cc(CCN2CC(F)C2)c(C(F)(F)F)cc1=O)c1cc(-c2c(C)cc(N3C4CCC3COC4)cc2O)cc(C)c1F, CuI/(1R,2R)-N1,N2-dimethylcyclohexane-1,2-diamine/K2CO3, dioxane, 27.5 mM, 16.0 h), `CCOC(=O)C[C@@H]1NC(=O)C(n2cc(CCN3CC(F)C3)c(C(F)(F)F)cc2=O)c2cc(ccc2F)Oc2cc(N3C4CCC3COC4)cc(C)c2-c2cc(C)c(F)c1c2` (stereo partly shown) gave a ring closure, isolated yield of 54.8%.
Take `CCOC(=O)C[C@H](NC(=O)C(c1cc(Cl)cc(Br)c1)n1cc(CCN2CC(F)C2)c(C(F)(F)F)cc1=O)c1cc(-c2c(C)cccc2O)cc(C)c1F` (stereo partly shown): in data set [2] (the molecule shown is the open-chain precursor, CuI/(1R,2R)-N1,N2-dimethylcyclohexane-1,2-diamine/K2CO3, dioxane, 15.0 mM), the ring closure, isolated yield worked out at 66.5%.
